The record followed here is patent US8168592B2 (Amgen Inc., priority 2005, dated 2012).

Where two headings read alike, the source gives them in different places. Square brackets hold non-standard residues; d marks the D form. Peptide text beside a SMILES is read from it. Oic = O=C(O)[C@@H]1C[C@@H]2CCCC[C@@H]2N1; Phe(4-I) = N[C@@H](Cc1ccc(I)cc1)C(=O)O; hArg = N=C(N)NCCCC[C@H](N)C(=O)O; Tic = O=C(O)[C@@H]1Cc2ccccc2CN1; Cit = NC(=O)NCCC[C@H](N)C(=O)O; PEG = not defined here

For orientation: IC50 means the concentration that inhibits the measured activity by half.

The test has as its target T1, CGRP1 receptor (Homo sapiens, UniProt O60894+Q16602).
T1 construct: SK-N-MC cells express CRLR and RAMP1, which form CGRP1 receptor; endogenous in cells; host or cells: SK-N-MC human neuroblastoma cells
Description: in vitro CGRP1 receptor mediated cAMP assay in SK-N-MC cells. In kind it is cell-based. An outline of the steps: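 Intracellular cAMP served as the Gs-coupled CGRP1 readout in endogenously expressing SK-N-MC cells. After a 15-minute room-temperature step in plasma-free medium, cell lysates (30 minutes, 37° C) went into a competitive ELISA with a cAMP-AP conjugate and anti-cAMP antibody for 1 hour, then a 30-minute substrate enhancer step before reading.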

T1 sequence (Q16602 23-461): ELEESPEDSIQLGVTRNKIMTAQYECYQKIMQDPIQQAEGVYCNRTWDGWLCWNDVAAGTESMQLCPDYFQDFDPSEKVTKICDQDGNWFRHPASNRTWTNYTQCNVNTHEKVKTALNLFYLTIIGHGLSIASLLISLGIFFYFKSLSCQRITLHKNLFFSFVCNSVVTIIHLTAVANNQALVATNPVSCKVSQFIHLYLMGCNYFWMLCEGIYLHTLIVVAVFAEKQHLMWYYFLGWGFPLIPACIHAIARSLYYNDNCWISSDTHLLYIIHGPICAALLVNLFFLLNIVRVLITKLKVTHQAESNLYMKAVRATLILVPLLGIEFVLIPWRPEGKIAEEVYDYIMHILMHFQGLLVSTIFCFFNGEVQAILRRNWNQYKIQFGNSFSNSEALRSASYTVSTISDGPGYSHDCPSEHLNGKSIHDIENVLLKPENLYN
T1 sequence (O60894 27-148): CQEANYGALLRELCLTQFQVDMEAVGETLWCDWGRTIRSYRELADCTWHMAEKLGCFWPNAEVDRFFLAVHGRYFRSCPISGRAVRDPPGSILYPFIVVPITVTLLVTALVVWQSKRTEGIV

As for `CC(=O)N[C@@H](Cc1c[nH]c2ccccc12)C(=O)N[C@H](C(=O)N[C@H]1CCC(=O)NCCCC[C@@H](C(=O)NCC(=O)N[C@H]2CCC(=O)NCCCC[C@@H](C(=O)NCC(=O)NCC(=O)N[C@H](C(=O)N[C@H](C(=O)N[C@@H](CCCCNC(=N)N)C(=O)N[C@@H](CCCCN)C(=O)N[C@@H](CC(N)=O)C(=O)N[C@@H](Cc3ccccc3)C(=O)N[C@H](C(=O)N3CCC[C@H]3C(=O)N[C@H](C(=O)N[C@@H](CC(=O)O)C(=O)N[C@H](C(=O)NCC(=O)N3CCC[C@H]3C(=O)N[C@@H](Cc3ccccc3)C(=O)N[C@@H](C)C(=O)N[C@@H](Cc3ccccc3)C(N)=O)C(C)C)[C@@H](C)O)C(C)C)C(C)C)C(C)C)NC(=O)[C@H](CCCNC(N)=O)NC(=O)[C@H](CO)NC(=O)[C@H](CC(C)C)NC2=O)NC(=O)[C@H](CC(C)C)NC(=O)[C@H](CCCNC(=N)N)NC(=O)[C@H](Cc2c[nH]cn2)NC1=O)C(C)C` [compound 902], the IC50 (Table 2C, unconjugated peptide, read-out: Peptide IC50) was found to be 0.49 nM. “SEQ ID NO:26 (WVTHXLAGLLSXSGGVVRKNFVPTDVGPFAF; CGRP peptide; MOD_RES (1)..(1): …ON; MISC_FEATURE (5)..(5): xaa=homoarginine; MISC_FEATURE (12)..(12): xaa=homoarginine; MISC_FEATURE (19)..(19): PEGylated; MOD_RES (31)..(31): AMIDATION)”: the “antagonist activity in cAMP assay, in words” value is given as “antagonist activity returned to the levels of the two peptides with single substitutions”. As to “SEQ ID NO:36 (Ac-WVTHRLAGLLSQSGGVVRC(PEG)NFVPTDVGPFAF-NH2; reading uncertain)”, for the setting “cAMP assay”, the “loss in antagonist activity on PEGylation relative to the unconjugated parent peptide” value is on record as “greater than 12 fold”. As for `CC(=O)N[C@@H](Cc1c[nH]c2ccccc12)C(=O)N[C@H](C(=O)N[C@H](C(=O)N[C@@H](Cc1c[nH]cn1)C(=O)N[C@@H](CCCNC(N)=O)C(=O)N[C@@H](CC(C)C)C(=O)N[C@@H](C)C(=O)NCC(=O)N[C@@H](CC(C)C)C(=O)N[C@@H](CC(C)C)C(=O)N[C@@H](CO)C(=O)N[C@@H](CCCNC(N)=O)C(=O)N[C@@H](CO)C(=O)NCC(=O)NCC(=O)N[C@H](C(=O)N[C@H](C(=O)N[C@@H](CCCCNC(=N)N)C(=O)N[C@@H](CCCCN)C(=O)N[C@@H](CC(N)=O)C(=O)N[C@@H](Cc1ccc(I)cc1)C(=O)N[C@H](C(=O)N1[C@H](C(=O)N[C@H](C(=O)N[C@@H](CC(=O)O)C(=O)N[C@H](C(=O)NCC(=O)N2CCC[C@H]2C(=O)N[C@@H](Cc2ccc(I)cc2)C(=O)N[C@@H](C)C(=O)N[C@@H](Cc2ccccc2)C(N)=O)C(C)C)[C@@H](C)O)C[C@@H]2CCCC[C@@H]21)C(C)C)C(C)C)C(C)C)[C@@H](C)O)C(C)C` [compound 136] (Ac-WVTH[Cit]LAGLLS[Cit]SGGVV[hArg]KN[Phe(4-I)]V[Oic]TDVGP[Phe(4-I)]AF-NH2), under “Table 2A, read-out: IC50”, the IC50 came to 2.34 nM. On the same count and under the same terms, the same measure for `CC(=O)N[C@@H](Cc1c[nH]c2ccccc12)C(=O)N[C@H](C(=O)N[C@H](C(=O)N[C@@H](Cc1c[nH]cn1)C(=O)N[C@@H](CCCNC(N)=O)C(=O)N[C@@H](CC(C)C)C(=O)N[C@@H](C)C(=O)NCC(=O)N[C@@H](CC(C)C)C(=O)N[C@@H](CC(C)C)C(=O)N[C@@H](CO)C(=O)N[C@@H](CCCNC(N)=O)C(=O)N[C@@H](CO)C(=O)NCC(=O)NCC(=O)N[C@H](C(=O)N[C@H](C(=O)N[C@@H](CCCNC(=N)N)C(=O)N[C@@H](CCCCN)C(=O)N[C@@H](CC(N)=O)C(=O)N[C@@H](Cc1ccccc1)C(=O)N[C@H](C(=O)N1CCC[C@H]1C(=O)N[C@H](C(=O)N[C@@H](CC(=O)O)C(=O)N[C@H](C(=O)NCC(=O)N1CCC[C@H]1C(=O)N1Cc2ccccc2C[C@H]1C(=O)N[C@@H](C)C(=O)N[C@@H](Cc1ccccc1)C(N)=O)C(C)C)[C@@H](C)O)C(C)C)C(C)C)C(C)C)[C@@H](C)O)C(C)C` [compound 146] (Ac-WVTH[Cit]LAGLLS[Cit]SGGVVRKNFVPTDVGP[Tic]AF-NH2): 10.1 nM.
